We go through six molecules from PMC11513893, “Discovery of Oral Degraders of the ROS1 Fusion Protein with Potent Activity against Secondary Resistance Mutations” (Journal of Medicinal Chemistry, 2024).

Read-outs that look alike come from different tables or passages of the source. Bounds are passed on as bounds.

In series [1] the test system is Ba/F3 CD74-ROS1 non mutant. The series is described as follows: Antiproliferation assay (Alamar Blue, 72 h). The conditions noted are these: Mus musculus, BaF3, 72 h, Ba/F3 cells, cell growth inhibition. It counts as cell-based, mouse.
Series [2] is described as follows: Metabolic stability in human microsomes. It counts as in vitro ADME. The settings on record: human, pooled human microsomes, pH 7.4, 250 nM compound, NADPH, 37 °C. How it is done:
(§1) Pooled human and rat microsomes were prepared and stored at −80 °C prior to use. A master-mix containing microsome, phosphate buffer, and test compound (9 series) solution was made as follows: (1) 3 μL of microsome (20 mg/mL) was diluted with mixed 30 μL of potassium phosphate buffer (pH 7.4; 10×) and 246 μL of water; (2) 3 μL of 25 μM drug solution was added to the microsome; (3) the master solution was prewarmed at 37 °C for 5 min. NADPH solution A (15 μL) and NADPH solution B (3 μL) from Promega were added to the above-mentioned master solution to initiate the reaction. The final concentration of 9 compounds in the reaction system was 250 nM. An aliquot of 20 μL was pipetted from the reaction solution and stopped by the addition of 180 μL of cold MeCN containing 25 ng of Tamoxifen-(N,N-dimethyl-13C2)-15N as an internal standard at the designated time points (0, 5, 15, 30, 45, and 60 min). The incubation solution was vortexed-mixed (800 rpm/10 min) and centrifuged at 3500 rpm for 10 min to precipitate proteins. The supernatant was collected and used for the LC/MS/MS analysis. The natural log of the remaining percentage of the test compound was plotted against time and the gradient of the line was determined.

In another series the test system is Ba/F3 ROS1-G2032R. Kind of series: Antiproliferation assay. In kind it is cell-based, mouse. The settings on record: Mus musculus, BaF3; Ba/F3 cells, cell growth inhibition, 72 h.
For another series, the system named is ROS1. The series is described as follows: ROS1 degradation in Ba/F3 cells (WES immunoblotting). It counts as cell-based. The settings on record: for DC50: concentration needed to reduce ROS1 protein by 50%, Ba/F3 cells; for Dmax (%) (ROS1): maximal degradation of ROS1 in Ba/F3 cells. Put shortly:
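ROS1 and phospho-ROS1 (Tyr2274/2334) in Ba/F3 lysates quantified by capillary immunoassay (WES) with chemiluminescent detection, duplicate experiments. Levels expressed as AUC of the chemiluminescence peak.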

A short description of series [3]: Pharmacokinetics study in Sprague–Dawley rats. The conditions noted are these: Sprague-Dawley [Crl: CD (SD)], plasma, rat. It counts as in vivo. How it is done:
Four to 6 weeks old Sprague–Dawley rats [Crl: CD (SD)] (SPF/VAF) were purchased from Charles River (Wilmington MA). Animals were quarantined/acclimated for 2–6 weeks prior to dose initiation. Sprague–Dawley rats were given oral administration of test compounds (20% PG, 5% Solutol, and 75% of 20% HP-β-CD in water) at different dose levels. After treatment with the compounds, whole blood was collected from each study animal by puncture of the tail vein (0.4 mL of whole blood from rats) into tubes containing K2EDTA at each time point. The plasma samples were divided into 2 aliquots (approximately equal in volume) and stored frozen at −75 ± 15 °C within 2 h of the collection until analysis.
The stock solution of the test compound (0.01 M) in DMSO was prepared and stored at −20 ± 5 °C. The desired serial concentrations of working reference analyte solutions were achieved by diluting a stock analyte solution with 50% acetonitrile (0.1% formic acid) in water solution. The bioanalytical LC–MS/MS method was developed for quantitative determination of each test compound in Sprague–Dawley rat plasma with acceptable selectivity, sensitivity, calibration curve, precision, and accuracy. The analytical method is applicable for the determination of test compounds in Sprague–Dawley rat plasma with a lower limit of quantification of 10.0 ng/mL and an upper limit of quantification of 5000 ng/mL. Five microliters of diluted supernatant was injected into the LC–MS/MS system (TSQ Quantis) and a SynergiTM 4 μm Fusion-RP 80 Å (50 × 2 mm) column using gradient elution and a Triple Quad mass spectrometer) for quantitative analysis. The mobile phases used were 0.1% formic acid in deionized water and 0.1% formic acid in acetonitrile. The pharmacokinetic parameters T1/2 (the biological half-life), Cmax (maximal concentration), Tmax (time at which Cmax is observed), and AUC (area under the plasma concentration–time curve) were calculated from the plasma concentration versus time data using WinNonlin (PhoenixTM, version 8.1, Mountain View, CA, USA).

The next series in a line: Log P measurement. In kind it is physicochemical. The source says: An important physicochemical property for a PROTAC molecule is its lipophilicity that largely dictates its pharmaceutical performance such as absorption, permeability, and distribution.
Series [4] in a line: Metabolic stability in rat microsomes. It counts as in vitro ADME. The settings on record: rat, pooled rat microsomes, pH 7.4, 250 nM compound, NADPH, 37 °C. The procedure: as §1

On to `COc1cc(N2CCN(CC3CCN(c4ccc5c(c4)C(=O)N(C4CCC(=O)NC4=O)C5=O)CC3)CC2)ccc1Nc1ncc(Cl)c(Nc2ccccc2P(C)(C)=O)n1` (centres unmarked) [9c, 5-(4-((4-(4-((5-Chloro-4-((2-(dimethylphosphoryl)phenyl)amino)pyrimidin-2-yl)amino)-3-methoxyphenyl)piperazin-1-yl)methyl)piperidin-1-yl)-2-(2,6-dioxopiperidin-3-yl)isoindoline-1,3-dione], for which the IC50 was 19 ± 8 nM in series [1] and 236 ± 28 nM in the series with Ba/F3 ROS1-G2032R. Moreover, the microsomal CLint at 1 h, 0.25 µM is 87 µL/min/mg in series [2] and 77 µL/min/mg in series [4]. The half-life at 1 h, 0.25 µM was 0.663 h in series [2] (read-out: metabolic stability in human microsomes T1/2) and 0.3 h in series [4] (read-out: metabolic stability in rat microsomes T1/2). This molecule also registered a DC50 in the series with ROS1 of 22 nM. In addition, in the series with ROS1, the “Dmax (%) (ROS1)” value was 95%. The AUC is 29400 ng·h/mL in series [3] (2 mg/kg iv, read-out: AUC (iv)) and 31700 ng·h/mL in series [3] (10 mg/kg po, read-out: AUC (po)). For the same molecule, in series [3] (10 mg/kg po), the Cmax at 24 h stood at 2340 ng/mL. In addition, the half-life in series [3] (10 mg/kg po) is 6.81 h. In addition, the bioavailability in series [3] (10 mg/kg po vs 2 mg/kg iv) came out at 21.6%. The Tmax in series [3] (10 mg/kg po, read-out: Tmax) is 3 h. The molecule further yielded a logP in the series “Log P measurement” of 2.35.

Molecule `COc1cc(N2CCC(N3CCN(CC4CCN(c5ccc(C(=O)NC6CCC(=O)NC6=O)cc5)CC4)CC3)CC2)ccc1Nc1ncc(Cl)c(Nc2ccccc2P(C)(C)=O)n1` (centres unmarked) [9r, 4-(4-((4-(1-(4-((5-Chloro-4-((2-(dimethylphosphoryl)phenyl)amino)pyrimidin-2-yl)amino)-3-methoxyphenyl)piperidin-4-yl)piperazin-1-yl)methyl)piperidin-1-yl)-N-(2,6-dioxopiperidin-3-yl)benzamide] showed an IC50 in series [1] of 120 ± 39 nM. The same molecule came in with a half-inhibitory concentration (IC50) in the series on Ba/F3 ROS1-G2032R of over 10000 nM. Further, in the series with ROS1, it took 123 nM to reach half-maximal degradation (DC50) and the “Dmax (%) (ROS1)” value is given as 28%.

On to `COc1cc(N2CCC(N3CCN(C(=O)CN4CCN(c5ccc(NC6CCC(=O)NC6=O)cc5)CC4)CC3)CC2)ccc1Nc1ncc(Cl)c(Nc2ccccc2P(C)(C)=O)n1` (centres unmarked) [9s, 3-((4-(4-(2-(4-(1-(4-((5-Chloro-4-((2-(dimethylphosphoryl)phenyl)amino)pyrimidin-2-yl)amino)-3-methoxyphenyl)piperidin-4-yl)piperazin-1-yl)-2-oxoethyl)piperazin-1-yl)phenyl)amino)piperidine-2,6-dione], for which half-maximal inhibition in series [1] (IC50) required 75 ± 9 nM. Moreover, the IC50 with Ba/F3 ROS1-G2032R is over 10000 nM. Moreover, in the series on ROS1, the DC50 worked out at 84 nM and the “Dmax (%) (ROS1)” value is given as 40%.

As for `COc1cc(N2CCC(N3CCN(CCC4CCN(c5ccc(NC6CCC(=O)NC6=O)cc5)CC4)CC3)CC2)ccc1Nc1ncc(Cl)c(Nc2ccccc2P(C)(C)=O)n1` (centres unmarked) [9t, 3-((4-(4-(2-(4-(1-(4-((5-Chloro-4-((2-(dimethylphosphoryl)phenyl)amino)pyrimidin-2-yl)amino)-3-methoxyphenyl)piperidin-4-yl)piperazin-1-yl)ethyl)piperidin-1-yl)phenyl)amino)piperidine-2,6-dione], the IC50 in series [1] was 61 ± 3 nM; in the series on Ba/F3 ROS1-G2032R, over 10000 nM. Half-maximal degradation in the series with ROS1 (DC50) was put at 56 nM. Also, the “Dmax (%) (ROS1)” value in the series on ROS1 is 45%.

Turning to `COc1cc(N2CCC(N3CCN(C(=O)CC4CCN(c5ccc(NC6CCC(=O)NC6=O)cc5)CC4)CC3)CC2)ccc1Nc1ncc(Cl)c(Nc2ccccc2P(C)(C)=O)n1` (centres unmarked) [9u, 3-((4-(4-(2-(4-(1-(4-((5-Chloro-4-((2-(dimethylphosphoryl)phenyl)amino)pyrimidin-2-yl)amino)-3-methoxyphenyl)piperidin-4-yl)piperazin-1-yl)-2-oxoethyl)piperidin-1-yl)phenyl)amino)piperidine-2,6-dione], in series [1], the IC50 came out at 82 ± 9 nM. In addition, the IC50 in the series with Ba/F3 ROS1-G2032R was over 10000 nM. Besides, in the series with ROS1, the DC50 is 101 nM and the “Dmax (%) (ROS1)” value was 37%.

With `COc1cc(N2CCC(N3CCN(C(=O)C4CCN(c5ccc(NC6CCC(=O)NC6=O)cc5)CC4)CC3)CC2)ccc1Nc1ncc(Cl)c(Nc2ccccc2P(C)(C)=O)n1` (centres unmarked) [9v, 3-((4-(4-(4-(1-(4-((5-Chloro-4-((2-(dimethylphosphoryl)phenyl)amino)pyrimidin-2-yl)amino)-3-methoxyphenyl)piperidin-4-yl)piperazine-1-carbonyl)piperidin-1-yl)phenyl)amino)piperidine-2,6-dione], the midpoint of inhibition in series [1], the IC50, lay at 63 ± 24 nM. In the series on Ba/F3 ROS1-G2032R, this molecule had a 50% inhibitory concentration (IC50) of over 10000 nM. In the series on ROS1, half-maximal degradation (DC50) was put at 76 nM and the “Dmax (%) (ROS1)” value is listed as 42%.
